Among the data in US20100075907A1, “NEUROMEDIN U RECEPTOR AGONISTS AND USES THEREOF” (priority 2006, published 2010) are receptor subtype specificity values, retold here.

Non-standard residues stand in square brackets, D forms with d. Residues, ends and D or L forms follow the SMILES beside them. hArg = N=C(N)NCCCC[C@H](N)C(=O)O

The assay has as its system NMUR1 and NMUR2. Put plainly: NMU receptor subtype selectivity (EC50 ratios human NMUR2/human NMUR1). The class given is cell-based. The conditions noted are these: NMUR1 vs NMUR2. The protocol: The present invention provides neuromedin U receptor agonist. The neuromedin U receptor agonist described herein act at NMU receptors, bind the NMU receptors, and stimulate NMU receptor activity. In one aspect, the neuromedin U receptor agonists are specific for one receptor subtype, wherein such specificity is defined as having an IC50 values that is less than about 200 nM in the corresponding NMUR1 or NMUR2 receptor binding assay. Selectivity is based upon functional activity or EC50 ratios at human NMUR2/human NMUR1 for NMUR1-selective peptides and at human NMUR1/human NMUR2 for NMUR2-selective peptides. Further, the selective neuromedin U receptor agonists described herein range from about 21 to 909-fold selective for NMUR1 and from about 2 to 200-fold selective for NMUR2. In another aspect, the neuromedin U receptor agonists are capable of binding and stimulating both the NMUR1 and NMUR2 receptors and have been derivatized to enable the neuromedin U receptor agonists to cross the blood-brain bather and interact with NMU receptors in the brain. The neuromedin U receptor agonists can be used therapeutically and as research tools.

As for `CC(C)C[C@H](NC(=O)[C@H](Cc1c[nH]c2ccccc12)NC(=O)[C@H](Cc1ccccc1)NC(=O)CNC(=O)[C@H](CCCNC(=N)N)NC(=O)[C@H](CO)NC(=O)[C@H](CCC(N)=O)NC(=O)[C@H](CO)NC(=O)[C@H](C)NC(=O)[C@H](Cc1ccccc1)NC(=O)[C@@H]1CCCN1C(=O)[C@H](CO)NC(=O)[C@H](CCC(N)=O)NC(=O)[C@H](Cc1ccccc1)NC(=O)[C@H](CCC(=O)O)NC(=O)[C@H](CCC(=O)O)NC(=O)[C@H](CC(=O)O)NC(=O)[C@@H](NC(=O)[C@H](CCCNC(=N)N)NC(=O)[C@@H](N)Cc1ccccc1)C(C)C)C(=O)N[C@@H](Cc1ccccc1)C(=O)N[C@@H](CCCNC(=N)N)C(=O)N1CCC[C@H]1C(=O)N[C@@H](CCCCNC(=N)N)C(=O)N[C@@H](CC(N)=O)C(N)=O` [Agonist O] (H-FRVDEEFQSPFASQSRGFWLFRP[hArg]N-NH2; N-terminus assumed), the receptor subtype specificity entry was “bispecific”.
